Results on 28 compounds are retold here after patent US20100137313A1 (ASTRAZENECA AB, priority 2008, published 2010).

Chain of S. pneumoniae Topoisomerase IV ATPase (ParE) (Q59961 whole entry): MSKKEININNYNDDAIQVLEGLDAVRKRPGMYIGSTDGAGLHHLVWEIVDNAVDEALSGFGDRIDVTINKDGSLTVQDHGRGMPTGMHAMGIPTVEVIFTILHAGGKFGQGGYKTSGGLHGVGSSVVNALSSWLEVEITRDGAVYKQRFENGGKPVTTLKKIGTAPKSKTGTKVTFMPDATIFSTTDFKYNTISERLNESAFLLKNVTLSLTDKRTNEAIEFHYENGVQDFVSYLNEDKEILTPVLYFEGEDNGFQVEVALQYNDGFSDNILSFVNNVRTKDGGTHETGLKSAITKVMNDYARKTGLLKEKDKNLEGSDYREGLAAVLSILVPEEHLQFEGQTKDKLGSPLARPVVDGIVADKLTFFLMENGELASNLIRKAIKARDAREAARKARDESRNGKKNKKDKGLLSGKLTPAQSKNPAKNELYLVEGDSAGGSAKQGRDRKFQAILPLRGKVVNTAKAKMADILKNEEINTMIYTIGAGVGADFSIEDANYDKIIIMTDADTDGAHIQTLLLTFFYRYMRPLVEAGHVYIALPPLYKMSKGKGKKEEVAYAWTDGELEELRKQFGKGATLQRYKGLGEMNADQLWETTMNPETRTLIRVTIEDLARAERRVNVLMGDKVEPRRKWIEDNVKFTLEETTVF

The target in this test is S. pneumoniae Topoisomerase IV ATPase (ParE) (Streptococcus pneumoniae serotype 4, UniProt Q59961). The test is described as follows: S. pneumoniae Topoisomerase IV ATPase inhibition. It counts as biochemical. As to conditions: values marked * are an average of two or more data points, read-out: % Inh (13 μM) of S. pneumoniae Topoisomerase IV ATPase. The essentials:
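Phosphate release by ParE ATPase from S. pneumoniae read colorimetrically (malachite green, 650 nm), enzyme 1.25 nM, ATP 160 μM, salmon sperm DNA present, buffer 20 mM Tris pH 8.0 with 8 mM MgCl2. IC50 over 10 compound concentrations, EDTA (20 μM) and DMSO controls defining inhibition range.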
As for `O=C(O)[C@@H]1CCCN1c1cccc(-c2cnc(Nc3ccc(F)c(Cl)c3)nc2-n2ccc(C(F)(F)F)n2)c1` [Example 599, 1-(3-{2-[(3-chloro-4-fluorophenyl)amino]-4-[3-(trifluoromethyl)-1H-pyrazol-1-yl]pyrimidin-5-yl}phenyl)-L-proline], the inhibition at 13 µM was determined as 94%.
The value for `O=C(O)[C@H]1CCCN1c1cccc(-c2cnc(Nc3ccc(F)c(Cl)c3)nc2-n2ccc(C(F)(F)F)n2)c1` [Example 600, 1-(3-{2-[(3-chloro-4-fluorophenyl)amino]-4-[3-(trifluoromethyl)-1H-pyrazol-1-yl]pyrimidin-5-yl}phenyl)-D-proline] was 100%; that for `O=C(O)C1CCCN(c2cccc(-c3cnc(Nc4ccc(F)c(Cl)c4)nc3-n3ccc(C(F)(F)F)n3)c2)C1` (stereo not shown) [Example 601, 1-(3-{2-[(3-chloro-4-fluorophenyl)amino]-4-[3-(trifluoromethyl)-1H-pyrazol-1-yl]pyrimidin-5-yl}phenyl)piperidine-3-carboxylic acid] was 100%.
`O=C(O)C1CCCCN1c1cccc(-c2cnc(Nc3ccc(F)c(Cl)c3)nc2-n2ccc(C(F)(F)F)n2)c1` (stereo not shown) [Example 602, 1-(3-{2-[(3-chloro-4-fluorophenyl)amino]-4-[3-(trifluoromethyl)-1H-pyrazol-1-yl]pyrimidin-5-yl}phenyl)piperidine-2-carboxylic acid]: the inhibition at 13 µM amounted to 100%.
Turning to `O=C(O)C1CCN(c2cccc(-c3cnc(Nc4ccc(F)c(Cl)c4)nc3-n3ccc(C(F)(F)F)n3)c2)C1` (stereo not shown) [Example 604, 1-(3-{2-[(3-chloro-4-fluorophenyl)amino]-4-[3-(trifluoromethyl)-1H-pyrazol-1-yl]pyrimidin-5-yl}phenyl)pyrrolidine-3-carboxylic acid], the inhibition at 13 µM amounted to 100%.
The value for `COc1cc(Nc2ncc(-c3cccc(/C=C/C(=O)O)c3)c(-n3ccc(C(F)(F)F)n3)n2)cc(OC)c1` [Example 615, (2E)-3-(3-{2-[(3,5-dimethoxyphenyl)amino]-4-[3-(trifluoromethyl)-1H-pyrazol-1-yl]pyrimidin-5-yl}phenyl)prop-2-enoic acid] was 100%; that for `COc1cc(Nc2ncc(-c3cccc(/C=C/C(=O)O)c3)c(-n3nc(C(F)(F)F)cc3C)n2)cc(OC)c1` [Example 616, (2E)-3-(3-{2-[(3,5-dimethoxyphenyl)amino]-4-[5-methyl-3-(trifluoromethyl)-1H-pyrazol-1-yl]pyrimidin-5-yl}phenyl)prop-2-enoic acid] was 99%; that for `Cc1cc(C)cc(Nc2ncc(-c3cccc(/C=C/C(=O)O)c3)c(-n3ccc(C(F)(F)F)n3)n2)c1` [Example 617, (2E)-3-(3-{2-[(3,5-dimethylphenyl)amino]-4-[3-(trifluoromethyl)-1H-pyrazol-1-yl]pyrimidin-5-yl}phenyl)prop-2-enoic acid] was 100%.
For the compound `Cc1cc(C)cc(Nc2ncc(-c3cccc(/C=C/C(=O)O)c3)c(-n3nc(C(F)(F)F)cc3C)n2)c1` [Example 618, (2E)-3-(3-{2-[(3,5-dimethylphenyl)amino]-4-[5-methyl-3-(trifluoromethyl)-1H-pyrazol-1-yl]pyrimidin-5-yl}phenyl)prop-2-enoic acid], the inhibition at 13 µM came to 98%.
The same measure for `O=C(O)/C=C/c1cccc(-c2cnc(Nc3cc(F)cc(F)c3)nc2-n2ccc(C(F)(F)F)n2)c1` [Example 619, (2E)-3-(3-{2-[(3,5-difluorophenyl)amino]-4-[3-(trifluoromethyl)-1H-pyrazol-1-yl]pyrimidin-5-yl}phenyl)prop-2-enoic acid]: 100%; for `Cc1cc(C(F)(F)F)nn1-c1nc(Nc2cc(F)cc(F)c2)ncc1-c1cccc(/C=C/C(=O)O)c1` [Example 620, (2E)-3-(3-{2-[(3,5-difluorophenyl)amino]-4-[5-methyl-3-(trifluoromethyl)-1H-pyrazol-1-yl]pyrimidin-5-yl}phenyl)prop-2-enoic acid]: 96%; for `O=C(O)/C=C/c1cccc(-c2cnc(Nc3cccc(F)c3)nc2-n2ccc(C(F)(F)F)n2)c1` [Example 621, (2E)-3-(3-{2-[(3-fluorophenyl)amino]-4-[3-(trifluoromethyl)-1H-pyrazol-1-yl]pyrimidin-5-yl}phenyl)prop-2-enoic acid]: 100%.
With `Cc1cc(C(F)(F)F)nn1-c1nc(Nc2cccc(F)c2)ncc1-c1cccc(/C=C/C(=O)O)c1` [Example 622, (2E)-3-(3-{2-[(3-fluorophenyl)amino]-4-[5-methyl-3-(trifluoromethyl)-1H-pyrazol-1-yl]pyrimidin-5-yl}phenyl)prop-2-enoic acid], the inhibition at 13 µM worked out at 98%.
`CS(=O)(=O)c1cccc(Nc2ncc(-c3cccc(/C=C/C(=O)O)c3)c(-n3ccc(C(F)(F)F)n3)n2)c1` [Example 623, (2E)-3-[3-(2-{[3-(methylsulfonyl)phenyl]amino}-4-[3-(trifluoromethyl)-1H-pyrazol-1-yl]pyrimidin-5-yl)phenyl]prop-2-enoic acid]: the inhibition at 13 µM was 100%.
The value for `Cc1cc(C(F)(F)F)nn1-c1nc(Nc2cccc(S(C)(=O)=O)c2)ncc1-c1cccc(/C=C/C(=O)O)c1` [Example 624, (2E)-3-[3-(2-{[3-(methylsulfonyl)phenyl]amino}-4-[5-methyl-3-(trifluoromethyl)-1H-pyrazol-1-yl]pyrimidin-5-yl)phenyl]prop-2-enoic acid] was 89%.
For `COc1cc(Nc2ncc(-c3cncc(C(=O)O)c3)c(-n3ccc(C(F)(F)F)n3)n2)cc(OC)c1` [Example 635, 5-{2-[(3,5-Dimethoxyphenyl)amino]-4-[3-(trifluoromethyl)-1H-pyrazol-1-yl]pyrimidin-5-yl}pyridine-3-carboxylic acid], the inhibition at 13 µM came out at 100%.
The same measure for `COc1cc(Nc2ncc(-c3cncc(C(=O)O)c3)c(-n3nc(C(F)(F)F)cc3C)n2)cc(OC)c1` [Example 636, 5-{2-[(3,5-dimethoxyphenyl)amino]-4-[5-methyl-3-(trifluoromethyl)-1H-pyrazol-1-yl]pyrimidin-5-yl}pyridin-3-carboxylic acid]: 100%.
The value for `Cc1cc(C)cc(Nc2ncc(-c3cncc(C(=O)O)c3)c(-n3ccc(C(F)(F)F)n3)n2)c1` [Example 637, 5-{2-[(3,5-dimethylphenyl)amino]-4-[3-(trifluoromethyl)-1H-pyrazol-1-yl]pyrimidin-5-yl}pyridine-3-carboxylic acid] was 100%; that for `Cc1cc(C)cc(Nc2ncc(-c3cncc(C(=O)O)c3)c(-n3nc(C(F)(F)F)cc3C)n2)c1` [Example 638, 5-{2-[(3,5-dimethylphenyl)amino]-4-[5-methyl-3-(trifluoromethyl)-1H-pyrazol-1-yl]pyrimidin-5-yl}pyridine-3-carboxylic acid] was 100%; that for `O=C(O)c1cncc(-c2cnc(Nc3cc(F)cc(F)c3)nc2-n2ccc(C(F)(F)F)n2)c1` [Example 639, 5-{2-[(3,5-difluorophenyl)amino]-4-[3-(trifluoromethyl)-1H-pyrazol-1-yl]pyrimidin-5-yl}pyridine-3-carboxylic acid] was 100%.
Regarding `Cc1cc(C(F)(F)F)nn1-c1nc(Nc2cc(F)cc(F)c2)ncc1-c1cncc(C(=O)O)c1` [Example 640, 5-{2-[(3,5-difluorophenyl)amino]-4-[5-methyl-3-(trifluoromethyl)-1H-pyrazol-1-yl]pyrimidin-5-yl}pyridine-3-carboxylic acid], the inhibition at 13 µM was 100%.
In the case of `O=C(O)c1cncc(-c2cnc(Nc3cccc(F)c3)nc2-n2ccc(C(F)(F)F)n2)c1` [Example 641, 5-{2-[(3-fluorophenyl)amino]-4-[3-(trifluoromethyl)-1H-pyrazol-1-yl]pyrimidin-5-yl}pyridine-3-carboxylic acid], the inhibition at 13 µM worked out at 100%.
The value for `Cc1cc(C(F)(F)F)nn1-c1nc(Nc2cccc(F)c2)ncc1-c1cncc(C(=O)O)c1` [Example 642, 5-{2-[(3-fluorophenyl)amino]-4-[5-methyl-3-(trifluoromethyl)-1H-pyrazol-1-yl]pyrimidin-5-yl}pyridine-3-carboxylic acid] was 100%; that for `CS(=O)(=O)c1cccc(Nc2ncc(-c3cncc(C(=O)O)c3)c(-n3ccc(C(F)(F)F)n3)n2)c1` [Example 643, 5-(2-{[3-(methylsulfonyl)phenyl]amino}-4-[3-(trifluoromethyl)-1H-pyrazol-1-yl]pyrimidin-5-yl)pyridine-3-carboxylic acid] was 100%; that for `Cc1cc(C(F)(F)F)nn1-c1nc(Nc2cccc(S(C)(=O)=O)c2)ncc1-c1cncc(C(=O)O)c1` [Example 644, 5-(2-{[3-(methylsulfonyl)phenyl]amino}-4-[5-methyl-3-(trifluoromethyl)-1H-pyrazol-1-yl]pyrimidin-5-yl)pyridine-3-carboxylic acid] was 84%.
The value for `COc1ncc(-c2cnc(Nc3cc(C)cc(C)c3)nc2-n2nc(C(F)(F)F)cc2C)cc1C(=O)O` [Example 646, 5-{2-[(3,5-dimethylphenyl)amino]-4-[5-methyl-3-(trifluoromethyl)-1H-pyrazol-1-yl]pyrimidin-5-yl}-2-methoxypyridine-3-carboxylic acid] was 100%; that for `COc1ncc(-c2cnc(Nc3cc(C)cc(C)c3)nc2-n2ccc(C(F)(F)F)n2)cc1C(=O)O` [Example 648, 5-{2-[(3,5-dimethylphenyl)amino]-4-[3-(trifluoromethyl)-1H-pyrazol-1-yl]pyrimidin-5-yl}-2-methoxypyridine-3-carboxylic acid] was 100%.
The same measure for `COc1cc(Nc2ncc(-c3cccc(/C=C/C(=O)O)c3)c(-n3nc(C(F)(F)F)cc3C)n2)cc(S(C)(=O)=O)c1` [Example 653]: 86%.
